Assay results as given in patent publication US7608726B2, “Substituted indolepyridinium as anti-infective compounds” (Tibotec Pharmaceuticals Ltd., priority 2002, dated 2009).

Columns and labels:
[1] = Microsomal metabolization, dog liver microsomes; assay type: in vitro ADME; conditions: 10 μM, LC-MS
[2] = tested on: SIV (simian immunodeficiency virus); experiment: Antiviral cellular assay, SIV; assay type: cell-based; conditions: read-out: pEC50 towards SIV (converted)
[3] = tested on: HIV mutant B (K103N); experiment: Antiviral cellular assay, mutant HIV strain B; assay type: cell-based; conditions: EC50 mutant/EC50 wild type, rounded to nearest integer
Procedure: (§1) HIV- or mock-infected MT4 cells were incubated for five days in the presence of various concentrations of the inhibitor. At the end of the incubation period, the replicating virus in the control cultures has killed all HIV-infected cells in the absence of any inhibitor. Cell viability was determined by measuring the concentration of MTT, a yellow, water soluble tetrazolium dye that is converted to a purple, water insoluble formazan in the mitochondria of living cells only. Upon solubilization of the resulting formazan crystals with isopropanol, the absorbance of the solution was monitored at 540 nm. The values correlate directly to the number of living cells remaining in the culture at the completion of the five day incubation. The inhibitory activity of the compound was monitored on the virus-infected cells and was expressed as EC50 and EC90. These values represent the amount of the compound required to protect 50% and 90%, respectively, of the cells from the cytopathogenic effect of the virus. […] Wherever results are reported as e.g. pEC50 or pCC50 values, the result is expressed as the negative logarithm of the result expressed as EC50 or CC50 respectively. […]
(§2) Row WT: pEC50 against wild type HIV-LAI strain. The toxicity (Tox) is expressed as the pCC50 value as determined with mock transfected cells. ND means not determined.

[4] = tested on: HIV mutant F (Y188L); experiment: Antiviral cellular assay, mutant HIV strain F; assay type: cell-based; conditions: EC50 mutant/EC50 wild type, rounded to nearest integer
Procedure: as §1, §2

[5] = Microsomal metabolization, human liver microsomes; assay type: in vitro ADME
Procedure: Aliquots of human liver microsomal fractions (prepared by centrifugation at 12000 g^−1) were transferred into 10 ml glass tubes that are immersed in ice. Subsequently, test compound was added to yield a final concentration of 10 μM test compound. After adding 500 μl of a co-factor solution (cofactor solution: 1 mg/ml glucose-6-phosphate, 1 mg/ml MgCl2.6H2O, 0.5 units/ml glucose-6-phosphate dehydrogenase in 0.5 M phohsphate buffer. pH 7.4), homogenisation buffer (homogenisation buffer: 1,15% KCl in 0.05 M phosphate buffer, pH 7.4) was added to give a final volume of 1 ml. The incubations, 30 or 120 minutes at 37° C., were initiated by adding 10 μl of a solution of nicontinamide adenine dinucleotide phosphate (1.25 mg/ml) in homogenisation buffer. After a preincubation during 5 minutes at 37° C., the tubes were continuously shaken at 100 oscillations/minute in a water bath. The reactions were terminated by addition of an equal volume of DMSO. Blank incubations containing boiled microsomal fractions were incubated under the same conditions as the drug incubations. The degree of metabolism was determined by direct measurement of the residual parent compound in the reaction mixture using LC-MS. In parallel, the residual anti-HIV activity in the reaction mixture was detected using a colorimetric anti-HIV assay as described in Pauwels et al. J. Virol. Methods 1988 (20) 309-321. The residual activity is defined as the percent difference in EC50 between the drug incubations and the blank incubations.
The amount of compound was determined using LC-MS at the time points indicated between brackets. The results are indicated as a % vis-à-vis the amount determined at the start of the experiment (time=0; normalized to 100%).

[6] = tested on: HIV mutant K (multiple RT mutations, Table 1); experiment: Antiviral cellular assay, mutant HIV strain K; assay type: cell-based; conditions: EC50 mutant/EC50 wild type, rounded to nearest integer
Procedure: as §1, §2

[7] = tested on: HIV mutant J (131L, L100I, K103N, E138G, Y181C, L214F); experiment: Antiviral cellular assay, mutant HIV strain J; assay type: cell-based; conditions: EC50 mutant/EC50 wild type, rounded to nearest integer
Procedure: as §1, §2

[8] = tested on: HIV mutant D (L100I; K103N); experiment: Antiviral cellular assay, mutant HIV strain D; assay type: cell-based; conditions: EC50 mutant/EC50 wild type, rounded to nearest integer
Procedure: as §1, §2

[9] = target: T1, HIV reverse transcriptase (Human immunodeficiency virus type 1 group M subtype B, UniProt P04585); experiment: In vitro inhibition of HIV reverse transcriptase (kit TRK 1022); assay type: biochemical; conditions: enzyme assay, 4 hours at 37° C.
T1 construct: 5 μl HIV RT enzyme solution; purchased Amersham Life Sciences TRK 1022
Procedure: The assay was run using kit TRK 1022 (Amersham Life Sciences) according to the manufacturer's instructions with slight modifications. Compounds were diluted in steps of ¼ in 100% DMSO and subsequently transferred to Medium A (1/50 dilution; medium A: RPMI 1640+10% FetalClone II+Gentamycin 20 mg/L). 25 μl of compound (in 2% DMSO in Medium A) or 25 μl of 2% DMSO in medium A was added to wells. To each well was added 25.5 μl master mix (master mix: 5 μl primer/template beads, 10 μl assay buffer, 0.5 μl tracer (3H-TTP), 5 μl HIV RT enzyme solution at a final enzyme activity of 15 mU per 50 μl reaction, 5 μl medium A). The plates were sealed, marked as radioactive and incubated during 4 hours at 37° C. Subsequently, 100 μl stop solution was added to each well (except R1). The radioactivity was counted in a TopCount.

[10] = tested on: HIV mutant G (V106A, F227L); experiment: Antiviral cellular assay, mutant HIV strain G; assay type: cell-based; conditions: EC50 mutant/EC50 wild type, rounded to nearest integer
Procedure: as §1, §2

[11] = tested on: HIV mutant C (L100I; K103N); experiment: Antiviral cellular assay, mutant HIV strain C; assay type: cell-based; conditions: EC50 mutant/EC50 wild type, rounded to nearest integer
Procedure: as §1, §2

[12] = tested on: HIV-2; experiment: Antiviral cellular assay, HIV-2; assay type: cell-based; conditions: Human immunodeficiency virus 2; read-out: pEC50 towards HIV-2 (converted)
Procedure: HIV- or mock-infected MT4 cells were incubated for five days in the presence of various concentrations of the inhibitor. At the end of the incubation period, the replicating virus in the control cultures has killed all HIV-infected cells in the absence of any inhibitor. Cell viability was determined by measuring the concentration of MTT, a yellow, water soluble tetrazolium dye that is converted to a purple, water insoluble formazan in the mitochondria of living cells only. Upon solubilization of the resulting formazan crystals with isopropanol, the absorbance of the solution was monitored at 540 nm. The values correlate directly to the number of living cells remaining in the culture at the completion of the five day incubation. The inhibitory activity of the compound was monitored on the virus-infected cells and was expressed as EC50 and EC90. These values represent the amount of the compound required to protect 50% and 90%, respectively, of the cells from the cytopathogenic effect of the virus. […] Wherever results are reported as e.g. pEC50 or pCC50 values, the result is expressed as the negative logarithm of the result expressed as EC50 or CC50 respectively.
as §2

[13] = tested on: Mycobacterium b.; experiment: Specificity versus non-viral pathogens: Mycobacterium b.; assay type: cell-based
[14] = tested on: HIV mutant A (Y181C); experiment: Antiviral cellular assay, mutant HIV strain A; assay type: cell-based; conditions: EC50 mutant/EC50 wild type, rounded to nearest integer
Procedure: as §1, §2

[15] = tested on: HIV mutant I (K101E, K103N); experiment: Antiviral cellular assay, mutant HIV strain I; assay type: cell-based; conditions: EC50 mutant/EC50 wild type, rounded to nearest integer
Procedure: as §1, §2

[16] = tested on: HIV mutant E (F227C); experiment: Antiviral cellular assay, mutant HIV strain E; assay type: cell-based; conditions: EC50 mutant/EC50 wild type, rounded to nearest integer
Procedure: as §1, §2

[17] = tested on: HIV mutant H (K103N, Y181C); experiment: Antiviral cellular assay, mutant HIV strain H; assay type: cell-based; conditions: EC50 mutant/EC50 wild type, rounded to nearest integer
Procedure: as §1, §2

[18] = tested on: HIV-1 strain LAI in MT4 cells; experiment: Time of addition experiment (p24 ELISA); assay type: cell-based; conditions: 50 μM, MT4 cells infected with HIV-1 LAI
Procedure: A time of addition experiment was performed to determine the mechanism of action of the compounds of the present invention. In the time of addition experiment, compounds are added to cells that were infected with HIV, at time zero (Zero hours). The compounds are subsequently added at different points in time. The time point until which a compound can be added to prevent virus replication, provides an indication of the mechanism of action of the compound.
In the present experiment, MT4 cells were infected with HIV-1 strain LAI at time zero. In different experiments, compounds were subsequently added at the points in time indicated in the X-axis of FIG. 1 (in hours). The compounds were added at the following end concentrations during incubation: DS5000, 1 μM; efavirenz (EFV), 1 μM; saquinavir (SQV), 1 μM; Reference 1, 10 μM (Reference 1 is an integrase inhibitor selected from WO 99/62520 and is present in CAS database: 251963-93-6); Compound 2, 50 μM; Control: normalized virus production. The virus production was determined using p24 monitoring using a kit according to the manufacturers instructions (p24 ELISA kit, catalog reference NEK-050, Perkin Elmer).

[19] = tested on: wild type HIV-LAI strain; experiment: Antiviral cellular assay (MT4 cells, MTT), wild type HIV-1 strain LAI; assay type: cell-based; conditions: Human immunodeficiency virus 1, MT4; read-out: EC50, inhibition of wild-type HIV-LAI strain
Procedure: The compounds of the present invention were examined for anti-viral activity in a cellular assay. […] The cellular assay was performed according to the following procedure.
HIV- or mock-infected MT4 cells were incubated for five days in the presence of various concentrations of the inhibitor. At the end of the incubation period, the replicating virus in the control cultures has killed all HIV-infected cells in the absence of any inhibitor. Cell viability was determined by measuring the concentration of MTT, a yellow, water soluble tetrazolium dye that is converted to a purple, water insoluble formazan in the mitochondria of living cells only. Upon solubilization of the resulting formazan crystals with isopropanol, the absorbance of the solution was monitored at 540 nm. The values correlate directly to the number of living cells remaining in the culture at the completion of the five day incubation. The inhibitory activity of the compound was monitored on the virus-infected cells and was expressed as EC50 and EC90. These values represent the amount of the compound required to protect 50% and 90%, respectively, of the cells from the cytopathogenic effect of the virus. The toxicity of the compound was measured on the mock-infected cells and was expressed as CC50, which represents the concentration of compound required to inhibit the growth of the cells by 50%. The selectivity index (SI) (ratio CC50/EC50) is an indication of the selectivity of the anti-HIV activity of the inhibitor. Wherever results are reported as e.g. pEC50 or pCC50 values, the result is expressed as the negative logarithm of the result expressed as EC50 or CC50 respectively.
As a measure of the broad spectrum activity of the present compounds, the EC50 was determined. […] The fold resistance rounded to the nearest integer is mentioned between brackets.
as §2

In the case of `Cn1c2ccccc2c2c1cc(C#N)c(=O)n2-c1ccc([N+](=O)[O-])cc1` [Compound 2, 5-methyl-1-(4-nitro-phenyl)-2-oxo-2,5-dihydro-1H-pyrido[3,2-b]indole-3-carbonitrile], the “DLM (0 min) amount of compound” value ([1]; 0 min, normalized to 100% at time 0) is reported as 100%, the “DLM (30 min) amount of compound” value ([1]; 30 min, % of amount at time 0) is reported as 91% and the “DLM (120 min) amount of compound” value ([1]; 120 min, % of amount at time 0) is reported as 108%. The EC50 [2] was 316 nM, the “fold resistance mutant B (between brackets)” value [3] was 1 and the “fold resistance mutant F (between brackets)” value [4] was 2. The “HLM (0 min) amount of compound” value ([5]; 10 μM, 0 min, LC-MS, normalized to 100% at time 0) was 100%, the “HLM (30 min) amount of compound” value ([5]; 10 μM, 30 min, LC-MS, % of amount at time 0) was 98% and the “HLM (120 min) amount of compound” value ([5]; 10 μM, 120 min, LC-MS, % of amount at time 0) was 128%. For the same molecule, the “hepatic first pass metabolization (microsomal)” value ([5]; liver microsomal fractions) was “little or no hepatic first pass metabolization”, the “fold resistance mutant K (between brackets)” value [6] was 4 and the “fold resistance mutant J (between brackets)” value [7] was 5. The “fold resistance mutant D (between brackets)” value [8] was 2, the “in vitro inhibition of HIV reverse transcriptase” value [9] was “inhibits HIV reverse transcriptase in vitro” and the “fold resistance mutant G (between brackets)” value [10] was 3. The “fold resistance mutant C (between brackets)” value [11] was 3, the EC50 [12] was 251 nM and the EC50 [13] was > 32000 nM. For the same molecule, the “fold resistance mutant A (between brackets)” value [14] was 4, the “fold resistance mutant I (between brackets)” value [15] was 3 and the “fold resistance mutant E (between brackets)” value [16] was 3. For the same molecule, the “fold resistance mutant H (between brackets)” value [17] was 5 and the “time of addition: effect on virus production / mechanism” value [18] was “delayed virus production using a mechanism related to reverse transcriptase”.
In the case of `Cn1c2ccccc2c2c1cc(-c1noc(C(F)(F)F)n1)c(=O)n2-c1ccc([N+](=O)[O-])cc1` [Compound 72, 5-Methyl-1-(4-nitro-phenyl)-3-(5-trifluoromethyl-[1,2,4]oxadiazol-3-yl)-1,5-dihydropyrido[3,2-b]indol-2-one], the EC50 [19] is reported as < 1000 nM.
